{
  "source": "patent US20090220528A1",
  "about": "“Stimulation of Toll-Like Receptors on T Cells” (THE TRUSTEES OF THE UNIVERISTY OF PENNSYLVANIA CNETER FOR …, priority 2005, published 2009)",
  "key": {"[1]": {"tested_on": "activated DO11.10 CD4+ T cells", "assay": "Proliferation by CFSE dye dilution", "type": "cell-based, mouse", "details": "72 hours following activation; relative to untreated activated controls (FIG. 3D)", "description": "(§1) Following activation, purified CD4^+ T cells were washed twice in PBS and replated in culture medium at 10^6/ml. Cultures were left untreated or treated with either TLR ligands and/or inhibitors for indicated times and concentrations. Following incubation, CD4^+ T cells were washed twice in PBS/2% FBS and stained with CD4-allophycocyanin monoclonal antibody and 7-aminoactinomycin D (7-AAD; BD PharMingen) or annexin (BD PharMingen) and survival was assessed by exclusion of either of these two stains. […] Live CD4^+ T cell counts were calculated by taking the ratio of the number of CD4^+CD45.1^−7-ADD^− events collected to the number CD45.1^+ events collected and multiplying by 50,000. Proliferation was measured by CFSE dye dilution as previously described (Wells et al., 1997 J. Clin. Invest. 100:3173).\nWithout wishing to be bound by any particular theory, the increases in live cells numbers observed could be explained by TLR ligand-mediated increases in CD4^+ T cell proliferation. […] To address this issue, CFSE-labeled DO11.10 CD4^+ T cells were first activated by pOVA-pulsed APCs for 16 hours, purified by magnetic beads, and then treated with TLR ligands and assessed for proliferation 72 hours following activation (FIG. 3D)."}, "[2]": {"tested_on": "MyD88-/- activated CD4+ T cells", "assay": "TLR ligand-mediated survival of MyD88-/- activated CD4+ T cells", "type": "cell-based, mouse", "details": "FIG. 4B", "source_text": "BALB/c mice were purchased from The Jackson Laboratory (Bar Harbor, Me.). DO11.10 mice on the BALB/c background have been described previously (Hsieh et al., 1992, Proc. Natl. Acad. Sci. USA 89:6065). MyD88^−/− mice have been described previously (Adachi et al., 1998, Immunity 9:143). For these experiments MyD88^+/− mice were backcrossed at least five times onto a C57BL/6 background and intercrossed to generate MyD88^−/− and MyD88^+/+ wild-type control littermates.\nas §1, with “100:3173). […]” for “100:3173).”"}, "[3]": {"tested_on": "activated DO11.10 CD4+ T cells", "assay": "Adoptive transfer and ex vivo proliferation analysis", "type": "in vivo, mouse", "description": "Five million purified DO11.10 CD4^+ T cells were activated by pOVA-pulsed APCs (1 μg/ml), purified with magnetic beads, treated with poly(I:C) (90 μg/ml), CpG DNA (30 μM), LPS (100 ng/ml), or left untreated for 16 hours, washed in PBS twice, and then adoptively transferred into BALB/c hosts. At day 30, spleen and peripheral lymph nodes were harvested and stained with anti-CD4 monoclonal antibody and the DO11.10 clonotypic monoclonal antibody KJI-26. Survival of activated DO11.10 CD4^+ T cells in each host was determined by FACS analysis and is expressed as a percent with respect to the total number of CD4^+ T cells found in either the host spleen or lymph nodes along with a mean (thick line) for each treatment group. […] [^3H]Thymidine was added to cultures for an additional 8 hour and read on a beta scintillation counter and is expressed as a mean for each treatment group ±SEM.\nTo address this question, DO11.10 CD4^+ T cells were first activated with pOVA-pulsed APCs, purified by magnetic beads, treated with TLR ligands for 16 hours, washed, and then adoptively transferred into congenic BALB/c hosts. Survival and ex vivo proliferative responses were assessed 30 days later (FIGS. 5A and 5B). […]"}, "activated CD4+ T cells": {"tested_on": "activated CD4+ T cells", "assay": "Absolute live CD4+ T cell counts by FACS", "type": "cell-based, mouse", "details": "up to 72 hours following activation with plate-bound anti-CD3 plus anti-CD28; relative to untreated cultures (FIG. 3C)", "description": "Following activation, purified CD4^+ T cells were washed twice in PBS and replated in culture medium at 10^6/ml. Cultures were left untreated or treated with either TLR ligands and/or inhibitors for indicated times and concentrations. Following incubation, CD4^+ T cells were washed twice in PBS/2% FBS and stained with CD4-allophycocyanin monoclonal antibody and 7-aminoactinomycin D (7-AAD; BD PharMingen) or annexin (BD PharMingen) and survival was assessed by exclusion of either of these two stains. For absolute live cell counts 50,000 CD45.1^+ splenocytes labeled with anti-CD45.1-PE monoclonal antibody (A20; BD PharMingen) were also added to stained CD4^+ T cell sample FACS tubes just before FACS analysis. Live CD4^+ T cell counts were calculated by taking the ratio of the number of CD4^+CD45.1^−7-ADD^− events collected to the number CD45.1^+ events collected and multiplying by 50,000. Proliferation was measured by CFSE dye dilution as previously described (Wells et al., 1997 J. Clin. Invest. 100:3173).\nSince percentage survival measurements may not be reflective of viable CD4^+ T cell numbers in vitro, absolute live cell number counts were quantified for periods up to 72 hours following activation of FACS sorted CD4^+ T cells with plate-bound anti-CD3 plus anti-CD28 monoclonal antibodies (FIGS. 3C)."}},
  "data": [
    {"substance": "poly(I:C)", "values": [
      {"measurement": "proliferation of activated CD4+ T cells", "setting": "[1]", "result": "did not enhance proliferation"},
      {"measurement": "enhanced survival response in MyD88-/- activated CD4+ T cells", "setting": "[2]", "result": "left intact"},
      {"measurement": "increase in percentage of recovered DO11.10 CD4+ T cells in host spleen", "setting": "[3]; day 30 after adoptive transfer into BALB/c hosts, cells treated 16 hours before transfer, vs LPS-treated or untreated cells (FIG. 5A)", "result": "~2", "unit": "fold"},
      {"measurement": "increase in proliferative response to pOVA of splenic CD4+ T cells", "setting": "[3]; ex vivo, day 30, vs hosts that received LPS-treated or untreated cells (FIG. 5B)", "result": 2, "unit": "fold"},
      {"measurement": "live CD4+ T cell numbers", "setting": "activated CD4+ T cells", "result": "concordant increases"}
    ]}
  ]
}
